Reference: patent US7094797B2, “Organ fibrosis inhibitor” (Ajinomoto Co., Inc., priority 2001, dated 2006)

Legend:
[1] = tested on: liver fibrosis induced by dimethylnitroseamine (DMN) in SD rat; assay: DMN-induced liver fibrosis in rat, amount of hydroxyproline (Hyp) in the liver; assay type: in vivo; details: male SD rat, DMN 10 mg/kg i.p. three times weekly for 3 weeks; His 0.2, 0.5, 1.0, 2.0 wt. % in feed, oral; day 21; FIG. 1
Description: Dimethylnitroseamine (DMN) was administered intraperitoneally at 10 mg/kg three times weekly to a male 9-week-old SD rat for 3 weeks to induce liver fibrosis. A commercially available feed or experimental diets prepared by adding L-histidine (His) as a test substance at concentrations of 0.2, 0.5, 1.0, and 2.0 wt. % to a commercially available feed were fed beginning on the day of start of DMN administration and thereafter. On day 21 from the start of the DMN administration, the liver was collected to assay the amount of hydroxyproline (Hyp) in the liver as a liver fibrosis marker, using an amino acid analyzer.

Hepatic stellate cells = assay: PDGF-stimulated DNA synthesis (BrdU uptake, ELISA) of Hepatic stellate cells; assay type: cell-based, rat; details: PDGF 25 ng/ml
Description: Hepatic stellate cells were isolated from a male Wistar rat liver and were cultured by the liver perfusion method with pronase E and collagenase. Hepatic stellate cells on day 8 to day 14 were cultured overnight in a culture medium containing 10 vol. % fetal calf serum (FCS). The culture medium was replaced with a culture medium containing 0.1 vol. % FCS, and it was cultured for 48 hours. Subsequently, L-histidine as the test substance was added in an amount to give a concentration of 1 to 30 mM. Then, further, platelet-derived growth factor (PDGF) was added to give a final concentration of 25 ng/ml, and the Hepatic stellate cells were cultured for 24 hours. Six hours before the completion of the culturing, bromodeoxyuridine (BrdU) was added to the culture system. After the completion of the culturing, the BrdU uptake into the cells was assayed by ELISA (enzyme-linked immunosorbent assay). As a control, only PDGF (at the final concentration of 25 ng/ml) was added to the culture medium. When the BrdU uptake in the control was defined as 100%, the value of each of the groups was calculated and the results are shown in FIG. 2.
In the same manner as in Example 2, the effects of L-histidine and D-histidine (individually at 30 mM) on the DNA synthesis of Hepatic stellate cells were compared with each other. When the BrdU uptake in the control was defined as 100%, the value of each of the groups was calculated and is shown in FIG. 3.
Hepatic stellate cells were isolated from male Wistar rat liver, and were cultured by the liver perfusion method with pronase E and collagenase. Hepatic stellate cells on day 8 to day 14 were cultured overnight in a culture medium containing 10 vol. % fetal calf serum (FCS). The culture medium was replaced with a 0.1 vol. % FCS culture medium, and it was cultured for 48 hours. Subsequently, L-cysteine, L-histidine or a composition of L-cysteine and L-histidine as a test substance was added thereto. […] When the BrdU uptake in the control was defined as 100%, the value of each of the groups was calculated and the results are shown in FIG. 4.

[2] = tested on: Human normal lung fibroblast cells (HLF-1 cell); assay: DNA synthesis (BrdU uptake, ELISA) of human normal lung fibroblast cells stimulated with PDGF or FCS; assay type: cell-based; details: HLF-1, 10 or 30 mM, 24 hours
Description: Human normal lung fibroblast cells (HLF-1 cell) were cultured overnight in a culture medium containing 10 vol. % fetal calf serum (FCS). Subsequently, the culture medium was replaced with a 0.1 vol. % FCS culture medium, and it was cultured for 24 hours. Subsequently, L-histidine (His) as the test substance was added so that the concentration was 10 or 30 mM. Then, further, platelet-derived growth factor (PDGF) was added to give a final concentration of 25 ng/ml or FCS was added to give a final concentration of 5 vol. %, and the HLF-1 cells were cultured for 24 hours. Six hours before the completion of the culturing, bromodeoxyuridine (BrdU) was added to the culture system. After the completion of the culturing, the BrdU uptake into the cells was assayed by ELISA (enzyme-linked immunosorbent assay). As a control, only PDGF (at the final concentration of 25 ng/ml) or FCS (at the final concentration of 5 vol. %) was added to the culture medium.

[3] = tested on: Human kidney mesangial cells; assay: DNA synthesis (BrdU uptake, ELISA) of human kidney mesangial cells stimulated with FCS; assay type: cell-based; details: 10 or 30 mM, FCS 5 vol. %, 24 hours; FIG. 6
Description: Human kidney mesangial cells were cultured overnight in a culture medium containing 10 vol. % fetal calf serum (FCS). Subsequently, the culture medium was replaced with a 0.1 vol. % FCS culture medium, and it was cultured for 24 hours. Subsequently, L-histidine (His) as a test substance was added in an amount to give a concentration of 10 or 30 mM. Then, further, FCS was added to give a final concentration of 5 vol. %, and the mesangial cells were cultured for 24 hours. Six hours before the completion of the culturing, bromodeoxyuridine (BrdU) was added to the culture system. After the completion of the culturing, the BrdU uptake into the cells was assayed by ELISA (enzyme-linked immunosorbent assay). As a control, only 5 vol. % FCS was added to the culture medium. When the BrdU uptake in the control was defined as 100%, the value of each of the groups was calculated and the results are shown in FIG. 6.

[4] = tested on: liver damage due to D-galactosamine administration; details: rat given L-histidine; cited from earlier work
[5] = 30 mM, levels of suppression of L- and D-form almost equal, FIG. 3

SMILES	amount of Hyp in the liver (liver fibrosis marker) [1]	DNA synthesis of Hepatic stellate cells activated with PDGF (BrdU uptake) (Hepatic stellate cells; [5])	DNA synthesis of Hepatic stellate cells activated with PDGF (BrdU uptake) (Hepatic stellate cells; 1 to 30 mM, 24 hours, dose-dependent, FIG. 2)	DNA synthesis of human normal lung fibroblast cell with FCS (BrdU uptake) ([2]; FCS 5 vol. %, FIG. 5b)	DNA synthesis of human normal lung fibroblast cell with PDGF (BrdU uptake) ([2]; PDGF 25 ng/ml, FIG. 5a)	DNA synthesis of human kidney mesangial cell with FCS (BrdU uptake) [3]	liver damage due to D-galactosamine administration [4]
N[C@@H](Cc1c[nH]cn1)C(=O)O [L-histidine]	significantly decreased	strongly suppressed	strongly suppressed	strongly suppressed	strongly suppressed	strongly suppressed	can be reduced
N[C@H](Cc1c[nH]cn1)C(=O)O [D-histidine]	–	strongly suppressed	–	–	–	–	–
